According to patent US10106534B2 (CELGENE QUANTICEL RESEARCH, INC., priority 2014, dated 2018):

What was measured:
JMJD2C = JMJD2C (Homo sapiens (Human), UniProt Q9H3R0); test: In vitro enzyme inhibition assay for JMJD2C activity (TR-FRET); format: biochemical
Outline: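 Demethylation product H3K9me2 quantified by TR-FRET ratio 665/615 after EDTA stop and 1 h with Eu-anti-H3K9me2 and streptavidin-APC; IC50 by curve fit. Reaction: 0.3 nM JMJD2C (AA 2-372, baculovirus), 2 μM α-ketoglutarate, 300 nM biotin-H3K9me3 peptide, pH 7.3 HEPES with Fe(II)/ascorbate, 30 min room temperature.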

JMJD3 = JMJD3 (Homo sapiens, UniProt O15054); test: In vitro enzyme inhibition assay for JMJD3 activity (TR-FRET); format: biochemical
Description: This assay determines the ability of a test compound to inhibit JMJD3 demethylase activity.
The enzymatic assay of JMJD3 activity is based upon Time Resolved-Fluorescence Resonance Energy Transfer (TR-FRET) detection. […] Reaction product was determined quantitatively by TR-FRET after the addition of detection reagent Phycolink Streptavidin-allophycocyanin (Prozyme) and Europium-anti-di-methylated histone H3 lysine 27 (H3K27me2) antibody (PerkinElmer) in the presence of 5 mM EDTA in LANCE detection buffer (PerkinElmer) at a final concentration of 50 nM and 1 nM, respectively.
The reaction mixture was incubated at room temperature for 30 minutes, and terminated by the addition of 6 μL of 5 mM EDTA in LANCE detection buffer containing 100 nM Phycolink Streptavidin-allophycocyanin and 2 nM Europium-anti-H3K27me2 antibody.

[1] = system: KYSE-150 esophageal carcinoma cell line; test: In vitro cell-based assay: cellular proliferation via BrdU incorporation (ELISA); parameters: species or system human; details: Homo sapiens, KYSE-150, 168 hours compound incubation
Outline: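 BrdU incorporation during S-phase, detected colorimetrically at 450 nm by peroxidase ELISA, measured proliferation after 168 h compound exposure.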

Chain of JMJD2C (Q9H3R0 2-372): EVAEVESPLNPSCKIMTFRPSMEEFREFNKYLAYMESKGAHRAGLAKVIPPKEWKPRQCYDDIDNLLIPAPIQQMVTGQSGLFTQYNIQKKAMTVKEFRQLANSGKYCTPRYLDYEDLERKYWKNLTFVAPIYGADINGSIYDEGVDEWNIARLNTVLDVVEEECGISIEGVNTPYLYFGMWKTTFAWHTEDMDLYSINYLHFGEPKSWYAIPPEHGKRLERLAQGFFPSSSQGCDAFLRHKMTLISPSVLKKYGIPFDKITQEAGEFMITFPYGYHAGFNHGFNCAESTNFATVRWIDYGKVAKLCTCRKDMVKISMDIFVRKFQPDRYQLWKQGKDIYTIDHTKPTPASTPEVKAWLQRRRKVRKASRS

Compound	IC50 (JMJD2C) [nM]	IC50 (JMJD3) [nM]	IC50 [1] [nM]	fold more potent for JMJD3 than the R-enantiomer (JMJD3; S-enantiomer vs R-enantiomer) [fold]
O=C(O)c1ccncc1NC[C@H]1CCOc2cc(-c3ccccc3Cl)ccc21 [Example 39, 3-({[(4S)-7-(2-chlorophenyl)-3,4-dihydro-2H-1-benzopyran-4-yl]methyl}amino)pyridine-4-carboxylic acid]	1000 to 10000	100 to 1000	–	–
CN(c1ccc2c(c1)OCC[C@H]2CNc1cnccc1C(=O)O)c1ccc(C2CC2)cn1 [Example 153, 3-({[(4R)-7-[(5-cyclopropylpyridin-2-yl)(methyl)amino]-3,4-dihydro-2H-1-benzopyran-4-yl]methyl}amino)pyridine-4-carboxylic acid]	100 to 1000	1000 to 10000	≤ 100	–
CN(c1ccc(-n2ccnc2)cc1)c1ccc2c(c1)OCC[C@H]2CNc1cnccc1C(=O)O [Example 194, 3-({[(4R)-7-{[4-(1H-imidazol-1-yl)phenyl](methyl)amino}-3,4-dihydro-2H-1-benzopyran-4-yl]methyl}amino)pyridine-4-carboxylic acid]	100 to 1000	1000 to 10000	1000 to 10000	–
O=C(O)c1ccncc1NC[C@@H]1CCOc2cc(-c3ccccc3Cl)ccc21 [Example 40, 3-({[(4R)-7-(2-chlorophenyl)-3,4-dihydro-2H-1-benzopyran-4-yl]methyl}amino)pyridine-4-carboxylic acid]	100 to 1000	1000 to 10000	≤ 100	–
O=C(O)c1ccncc1NC[C@H]1CCOc2cc(Sc3cccc(F)c3)ccc21 [Example 52, 3-({[(4S)-7-[(3-fluorophenyl)sulfanyl]-3,4-dihydro-2H-1-benzopyran-4-yl]methyl}amino)pyridine-4-carboxylic acid]	1000 to 10000	100 to 1000	–	–
CCc1ccc(N(C)c2ccc3c(c2)OCC[C@H]3CNc2cnccc2C(=O)O)cc1 [Example 154, 3-({[(4R)-7-[(4-ethylphenyl)(methyl)amino]-3,4-dihydro-2H-1-benzopyran-4-yl]methyl}amino)pyridine-4-carboxylic acid]	100 to 1000	1000 to 10000	≤ 100	–
CN(c1ccccc1)c1ccc2c(n1)CCCC2CNc1cnccc1C(=O)O (stereo not shown) [Example 26, 3-[({2-[methyl(phenyl)amino]-5,6,7,8-tetrahydroquinolin-5-yl}methyl)amino]pyridine-4-carboxylic acid]	100 to 1000	1000 to 10000	1000 to 10000	–
Cc1sccc1-c1ccc2c(c1)OCC[C@@H]2CNc1cnccc1C(=O)O [Example 36, 3-({[(4S)-7-(2-methylthiophen-3-yl)-3,4-dihydro-2H-1-benzopyran-4-yl]methyl}amino)pyridine-4-carboxylic acid]	1000 to 10000	100 to 1000	–	–
Cc1cccc(-c2ccc3c(c2)OCC[C@@H]3CNc2cnccc2C(=O)O)c1 [Example 29, 3-({[(4S)-7-(3-methylphenyl)-3,4-dihydro-2H-1-benzopyran-4-yl]methyl}amino)pyridine-4-carboxylic acid]	1000 to 10000	100 to 1000	–	–
O=C(O)c1ccncc1NCC1CCOc2cc(N3CCc4ccccc43)ccc21 (stereo not shown) [Example 17, 3-({[7-(2,3-dihydro-1H-indol-1-yl)-3,4-dihydro-2H-1-benzopyran-4-yl]methyl}amino)pyridine-4-carboxylic acid]	100 to 1000	1000 to 10000	100 to 1000	–
CN(c1ccc(C2CC2)cc1)c1ccc2c(c1)OCC[C@H]2CNc1cnccc1C(=O)O [Example 134, 3-({[(4R)-7-[(4-cyclopropylphenyl)(methyl)amino]-3,4-dihydro-2H-1-benzopyran-4-yl]methyl}amino)pyridine-4-carboxylic acid]	100 to 1000	1000 to 10000	≤ 100	–
CN(c1ccc2c(c1)CCC[C@H]2CNc1cnccc1C(=O)O)c1ccccn1 [Example 11, 3-({[(1R)-6-[methyl(pyridin-2-yl)amino]-1,2,3,4-tetrahydronaphthalen-1-yl]methyl}amino)pyridine-4-carboxylic acid]	100 to 1000	1000 to 10000	≤ 100	–
CN(c1ccc(Cl)cc1)c1ccc2c(c1)OCC[C@H]2CNc1cnccc1C(=O)O [Example 23, 3-({[(4R)-7-[(4-chlorophenyl)(methyl)amino]-3,4-dihydro-2H-1-benzopyran-4-yl]methyl}amino)pyridine-4-carboxylic acid]	100 to 1000	1000 to 10000	≤ 100	–
Cc1ccc(N(C)c2ccc3c(c2)OCC[C@H]3CNc2cnccc2C(=O)O)cc1 [Example 22, 3-({[(4R)-7-[methyl(4-methylphenyl)amino]-3,4-dihydro-2H-1-benzopyran-4-yl]methyl}amino)pyridine-4-carboxylic acid]	100 to 1000	1000 to 10000	≤ 100	–
Cc1ccc(Oc2ccc3c(c2)CCC[C@H]3CNc2cnccc2C(=O)O)c(F)c1 [Example 66, 3-({[(1R)-6-(2-fluoro-4-methylphenoxy)-1,2,3,4-tetrahydronaphthalen-1-yl]methyl}amino)pyridine-4-carboxylic acid]	100 to 1000	1000 to 10000	≤ 100	–
CN(c1ccc(OC(F)(F)F)cc1)c1ccc2c(c1)OCC[C@H]2CNc1cnccc1C(=O)O [Example 182, 3-({[(4R)-7-{methyl[4-(trifluoromethoxy)phenyl]amino}-3,4-dihydro-2H-1-benzopyran-4-yl]methyl}amino)pyridine-4-carboxylic acid]	100 to 1000	1000 to 10000	–	–
Cc1ccc(-c2ccc3c(c2)OCC[C@@H]3CNc2cnccc2C(=O)O)cc1 [Example 31, 3-({[(4S)-7-(4-methylphenyl)-3,4-dihydro-2H-1-benzopyran-4-yl]methyl}amino)pyridine-4-carboxylic acid]	1000 to 10000	100 to 1000	–	–
CN(c1ccc2c(c1)CCC[C@H]2CNc1cnccc1C(=O)O)c1cnn(C)c1 [Example 159, 3-({[(1R)-6-[methyl(1-methyl-1H-pyrazol-4-yl)amino]-1,2,3,4-tetrahydronaphthalen-1-yl]methyl}amino)pyridine-4-carboxylic acid]	100 to 1000	1000 to 10000	1000 to 10000	–
COc1ccc2c(c1C)CCC[C@H]2CNc1cnccc1C(=O)O [Example 99, 3-({[(1R)-6-methoxy-5-methyl-1,2,3,4-tetrahydronaphthalen-1-yl]methyl}amino)pyridine-4-carboxylic acid]	100 to 1000	100 to 1000	1000 to 10000	–
CN(c1ccc(O)cc1)c1ccc2c(c1)CCC[C@H]2CNc1cnccc1C(=O)O [Example 165, 3-({[(1R)-6-[(4-hydroxyphenyl)(methyl)amino]-1,2,3,4-tetrahydronaphthalen-1-yl]methyl}amino)pyridine-4-carboxylic acid]	100 to 1000	1000 to 10000	1000 to 10000	–
O=C(O)c1ccncc1NC[C@@H]1CCOc2cc(-c3ccccc3O)ccc21 [Example 138, 3-({[(4R)-7-(2-hydroxyphenyl)-3,4-dihydro-2H-1-benzopyran-4-yl]methyl}amino)pyridine-4-carboxylic acid]	100 to 1000	1000 to 10000	–	–
O=C(O)c1ccncc1NC[C@H]1CCOc2cc(-c3ccsc3)ccc21 [Example 33, 3-({[(4S)-7-(thiophen-3-yl)-3,4-dihydro-2H-1-benzopyran-4-yl]methyl}amino)pyridine-4-carboxylic acid]	1000 to 10000	< 100	–	–
CN(c1ccccc1)c1ccc2c(c1)CCC[C@@H]2CNc1cnccc1C(=O)O [Example 1, 3-({[(1S)-6-[methyl(phenyl)amino]-1,2,3,4-tetrahydronaphthalen-1-yl]methyl}amino)pyridine-4-carboxylic acid]	1000 to 10000	1000 to 10000	–	–
O=C(O)c1ccncc1NC[C@H]1CCOc2cc(-c3ccccc3)ccc21 [Example 83 of U.S. Pat. No. 8,952,151, 3-({[(4S)-7-phenyl-3,4-dihydro-2H-1-benzopyran-4-yl]methyl}amino)pyridine-4-carboxylic acid, reference compound]	–	–	–	> 100
3-({[(1R)-6-[benzyl(methyl)amino]-1,2,3,4-tetrahydronaphthalen-1-yl]methyl}amino)pyridine-4-carboxylic acid [Example 130]	100 to 1000	1000 to 10000	–	–
O=C(O)c1ccncc1NC[C@H]1CCOc2cc(Sc3ccc(F)cc3)ccc21 [Example 54, 3-({[(4S)-7-[(4-fluorophenyl)sulfanyl]-3,4-dihydro-2H-1-benzopyran-4-yl]methyl}amino)pyridine-4-carboxylic acid]	1000 to 10000	100 to 1000	–	–
CN(c1ccccc1)c1ccc2c(c1)CCCC2CNc1cnccc1C(=O)O (stereo in doubt) [Example 2, 3-({[(1S)-6-[methyl(phenyl)amino]-1,2,3,4-tetrahydronaphthalen-1-yl]methyl}amino)pyridine-4-carboxylic acid]	100 to 1000	1000 to 10000	–	–
